Results as given in paper PMC12663261 (Nature Communications, 2025).

Assays:
[1] = target: T1, hcis-PT (DHDDS / NgBR complex) (Homo sapiens, UniProt Q86SQ9+Q96E22); assay: fluorescence increase upon chain elongation; format: biochemical; conditions: 5 uM with 100 uM IPP, 0.2 uM enzyme, 0.5 mM MgCl2, pH 7.5
T1 sequence (Q86SQ9 1-333): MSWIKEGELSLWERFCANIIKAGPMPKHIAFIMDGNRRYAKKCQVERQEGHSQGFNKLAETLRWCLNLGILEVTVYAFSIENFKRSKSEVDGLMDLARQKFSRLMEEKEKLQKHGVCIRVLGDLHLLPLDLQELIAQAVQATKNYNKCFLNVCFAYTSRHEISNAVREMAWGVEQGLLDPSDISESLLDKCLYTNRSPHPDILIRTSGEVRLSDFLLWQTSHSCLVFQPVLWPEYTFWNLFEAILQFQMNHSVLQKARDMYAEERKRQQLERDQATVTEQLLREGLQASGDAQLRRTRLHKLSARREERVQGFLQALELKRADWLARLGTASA
T1 sequence (Q96E22 73-293): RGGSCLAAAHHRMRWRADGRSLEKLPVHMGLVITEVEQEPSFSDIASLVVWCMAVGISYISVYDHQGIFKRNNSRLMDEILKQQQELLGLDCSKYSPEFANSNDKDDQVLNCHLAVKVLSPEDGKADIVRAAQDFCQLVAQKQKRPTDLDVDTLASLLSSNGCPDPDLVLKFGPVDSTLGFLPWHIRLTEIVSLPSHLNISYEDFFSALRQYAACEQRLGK

[2] = target: T1, hcis-PT (DHDDS / NgBR complex); assay: HDX-MS, ligand-bound versus apo; format: binding; conditions: 6-molar excess ligand, 5 mM MgCl2, pD 7.5, 4 °C; active site

Compound | fluorescence increase upon chain elongation (Ex 352 nm, Em 425 nm) [1] | HDX-MS, ligand-bound versus apo [2]
CNc1ccccc1C(=O)OC/C(C)=C/CC/C(C)=C/COP(=O)(O)OP(=O)(O)O [MANT-O-GPP, (2E,6E)-8-O-(N-methyl-2-aminobenzoyl)-3,7-dimethyl-2,6-octandien-1-pyrophosphate] | MANT-O-GPP exhibits an increase in fluorescence upon chain elongation by hcis-PT | 
CC(C)=CCC/C(C)=C/CC/C(C)=C/COP(=O)(O)OP(=O)(O)O [FPP] |  | binding of either FPP or GGPP resulted in decreased HDX throughout the active site
CC(C)=CCC/C(C)=C/CC/C(C)=C/CC/C(C)=C/COP(=O)(O)OP(=O)(O)O [GGPP] |  | binding of either FPP or GGPP resulted in decreased HDX throughout the active site
